This is an account of results in patent US20060293295A1, “Pharmaceutical composition comprising progestogens and/or estrogens and 5-methyl- (6S)-tetrahydrofolate” (priority 2005, published 2006).

Like-named read-outs stand apart in the source and are kept apart here.

Series [1] is described as follows: Compatibility investigation of binary mixtures with vitamin B12 by DSC. Conditions: for Compatibility: binary mixture with vitamin B12, DSC, various gases and temperatures, stated temperature is 60° C. where given; for Comments: binary mixture with vitamin B12, cells wrap, all except Drospirenone and Ethinylestradiol ('very O2-sensitive') continue 'moisture-sensitive'. The arrangement: key to Compatibility: ++ good compatibility expected below the stated temperature; + compatibility below the stated temperature; ++/− indifferent compatibility, possibly good compatibility below the stated temperature; +/−− indifferent compatibility, appears to be compatible below the stated temperature; −(−−−) (strong) interaction, incompatible; −(−−−) (strong) interaction, incompatible. The class given is physicochemical. As to the method:
Both vitamin B12 and 5-methyl-(6S)-tetrahydrofolate are unstable in the presence of atmospheric oxygen and humidity. […] Measurements of the incompatibilities between the intended formulation ingredients were carried out by a thermoanalytical method (DSC, differential scanning calorimetry). This allows incompatibilities to be recognized through low enthalpies of fusion and melting temperatures. These are caused for example by a reduced proportion of crystalline substance and the increase in impurities. In the determination, binary mixtures of excipients or active ingredients in each case with vitamin B12 were investigated, and the compatibility was examined under the influence of various gases and temperatures. […]
On the technique in general: Differential scanning calorimetry records heat flow against a reference as temperature is scanned.

The conditions of series [2]: one month. From the text:
An oral formulation is normally prepared by granulation, tableting and film-coating.

How the values of series [3] were obtained: The investigated formulation was prepared (process 2) by mixing the ingredients, granulating with the part of the corn starch used as binder, absorbing the 5-methyl-(6S)-tetrahydrofolate after completion of the granulation process, renewed mixing and tableting. By comparison therewith, polyvinylpyrrolidone was added as binder instead of corn starch to the formulation by process 3.
The difference between process 1 and process 2 derives from the time at which the 5-methyl-(6S)-tetrahydrofolate was added during the preparation of the investigated tablet. In process 1, the 5-methyl-(6S)-tetrahydrofolate was present in the mixture even during the granulation, whereas in process 2 it was absorbed only after the granulation.

The conditions of series [4]: 50 rpm, 37° C., 0.03 percent aqueous ascorbic acid solution. The procedure: For this purpose, the tablets were investigated in an in vitro dissolution test using a USP paddle apparatus at 50 rpm and 37° C. in a 0.03 percent aqueous ascorbic acid solution.
For series [5] the following is noted: intake at the right time around conception; cited from earlier work.
Where [6] appears, read: vials closed, listed as 5-methyl-(6S)-tetrahydrofolate.
Where [7] appears, read: of Metafolin content per tablet immediately after preparation.
Where [8] appears, read: per tablet, of specified content 100%, immediately after preparation, average.

With `C[C@]12CCC(=O)C=C1[C@@H]1C[C@@H]1[C@H]1[C@@H]3[C@@H]4C[C@@H]4[C@@]4(CCC(=O)O4)[C@@]3(C)CC[C@@H]12` [Drospirenone], in series [1], the Compatibility result is reported as “+” and the Comments result was “O2-sensitive”.

For the compound `OC[C@H]1O[C@@H](O[C@H]2[C@H](O)[C@@H](O)C(O)O[C@@H]2CO)[C@H](O)[C@@H](O)[C@H]1O` (stereo partly drawn) [Lactose], in series [1], the Compatibility entry was “+” and the Comments result is given as “O2-sensitive,”.

`CN1c2c(nc(N)[nH]c2=O)NC[C@@H]1CNc1ccc(C(=O)N[C@@H](CCC(=O)O)C(=O)O)cc1` [Metafolin]: in series [2] (vials closed), the “Metafolin content 25° C./60% rH absorption (process 2)” value was found to be 92.5%, the “Metafolin content 25° C./60% rH granulation (process 1)” value stood at 74.5%, the “Metafolin content 40° C./75% rH absorption (process 2)” value turned out to be 90.1% and the “Metafolin content 40° C./75% rH granulation (process 1)” value came to 58.9%. Further, in series [2] (setting [6]), the “Metafolin content 40° C./75% rH absorption (process 2)” value is “above 90%” and the “Metafolin content 40° C./75% rH granulation (process 1)” value is given as approximately 60%. Moreover, in series [2] (vials open), the “Metafolin content 25° C./60% rH absorption PVP (process 3)” value is 89.5%, the “Metafolin content 25° C./60% rH absorption corn starch (process 2)” value was 92.1%, the “Metafolin content 25° C./60% rH granulation (process 1)” value was determined as 63.2% and the “Metafolin content 40° C./75% rH absorption PVP (process 3)” value came to 37.7%. Also, in series [2] (vials open), the “Metafolin content 40° C./75% rH absorption corn starch (process 2)” value amounted to 67.7% and the “Metafolin content 40° C./75% rH granulation (process 1)” value worked out at 43.4%. In series [3] (setting [7]), the “Distribution coefficient, absorption (process 2)” value turned out to be 2.5 and the “Distribution coefficient, granulation (process 1)” value is reported as 6.1. Further, the “Metafolin content granulation (process 1)” value in series [3] (per tablet, immediately after preparation, average) was 88.5%. Besides, in series [3] (setting [8]), the “Metafolin content absorption, PVP (process 3)” value worked out at 90.5% and the “Metafolin content absorption, corn starch (process 2)” value was 96.1%. Further, in series [4] (0 min), the “5-Methyl-(6S)-tetrahydrofolate process 1 dissolution [%]” value was 0% and the “5-Methyl-(6S)-tetrahydrofolate process 2 dissolution [%]” value was 0%. In addition, in series [4] (10 min), the “5-Methyl-(6S)-tetrahydrofolate process 1 dissolution [%]” value stood at 59.2% and the “5-Methyl-(6S)-tetrahydrofolate process 2 dissolution [%]” value amounted to 81.4%. Also, in series [4] (15 min), the “5-Methyl-(6S)-tetrahydrofolate process 1 dissolution [%]” value is recorded as 66.8% and the “5-Methyl-(6S)-tetrahydrofolate process 2 dissolution [%]” value was determined as 89.3%. In addition, in series [4] (30 min), the “5-Methyl-(6S)-tetrahydrofolate process 1 dissolution [%]” value was 73.1% and the “5-Methyl-(6S)-tetrahydrofolate process 2 dissolution [%]” value is recorded as 91.3%. Further, in series [4] (45 min), the “5-Methyl-(6S)-tetrahydrofolate process 1 dissolution [%]” value was determined as 76.7% and the “5-Methyl-(6S)-tetrahydrofolate process 2 dissolution [%]” value stood at 91.1%. In series [4] (60 min), the “5-Methyl-(6S)-tetrahydrofolate process 1 dissolution [%]” value stood at 75.8% and the “5-Methyl-(6S)-tetrahydrofolate process 2 dissolution [%]” value was found to be 91.2%.

Take `Nc1nc2ncc(CNc3ccc(C(=O)N[C@@H](CCC(=O)O)C(=O)O)cc3)nc2c(=O)[nH]1` [folic acid]: the “reduction of neural tube defects” value in series [5] is recorded as 50-70%.

As for Magnesium stearate, in series [1], the Compatibility result is on record as “++/−” and the Comments entry is given as “O2-sensitive,”.
